Experimental data from patent US10952992B2, “Methods of treating intraocular pressure with activators of Tie-2” (Aerpio Pharmaceuticals, Inc., priority 2015, dated 2021).
“And” between values parts separate entries of the source, which are not always exact repeats. Equal values may be shown once.

Experiment: Example 2 plasma concentrations and pharmacokinetics after topical ocular, subcutaneous, intravitreal administration
Type: in vivo, male New Zealand White rabbits
Experimental: To measure the concentration of Compound 1 in plasma and ocular tissues following topical ocular, subcutaneous, and intravitreal administration, New Zealand White rabbits were administered Compound 1, and plasma and ocular samples were collected at pre-determined time points. Compound 1 formulations were prepared fresh on each day of dosing.
Ocular tissue samples from both eyes of each animal were collected and weights were recorded. Plasma and ocular tissue sample concentrations of Compound 1 were determined by LC-MS/MS.
New Zealand White rabbits weighing 2.5 to 3.5 kg were used on this study. Rabbits were housed one per cage. Animals were not fasted and only healthy animals with no ocular illness were used. Two rabbits per group were sacrificed at each of four ocular tissue sampling time points for a total of eight rabbits per group.
Animals were anesthetized for ocular (topical) and intravitreal dosing following the 12IA7 IACUC protocol. Each rabbit received a bolus dose of test formulation either via topical ocular administration 3 times daily on Days 1 and 2 (at 0, 6, and 12 hours), and once on Day 3 (at 0 hours) into both eyes; via intravitreal administration into both eyes once on Day 1 (at 0 hours); or via subcutaneous administration 2 times daily on Days 1 and 2 (at 0 and 8 hours) and once daily on Day 3 (at 0 hours). Doses were given within an approximately 1 hour window each day where applicable.
Each blood sample was collected on Day 3 post dose at pre-determined time points from the rabbits via an ear vessel and placed into chilled polypropylene tubes containing sodium heparin as an anticoagulant. Samples were spun by centrifuge at 4° C. and 3,000× g for 5 minutes. Samples were maintained chilled throughout processing. Each plasma sample was placed on dry ice and stored in a freezer at −60° C. to −80° C. pending bioanalysis.
An LC-MS/MS method was developed for the determination of Compound 1 in rabbit aqueous tissues (plasma, aqueous and vitreous humor) and solid ocular tissue samples. A pre-study standard curve was analyzed to determine the specificity, range, and lower limit of quantitation of the method. Plasma and tissue homogenate study samples were extracted and analyzed. All the samples were treated identically to the standards.
One eight-point standard curve was used in each analytical batch. To be accepted, each batch must have had at least five of eight standards with accuracy within ±20% of nominal, except at the lower limit of quantification (LLOQ), where ±25% was acceptable.
Pharmacokinetic parameters were calculated from the time course of the plasma concentration. The maximum plasma concentration (Cmax) and time to the maximum plasma drug concentration (Tmax) were the observed values for each concentration-time profiles. The area under the plasma drug concentration-time curve (AUClast, with last being from time 0 to the last quantifiable point) was calculated using the trapezoidal formula. The mean residence time MRTlast was calculated as a ratio of AUMClast (area under the first movement curve) to AUClast.

[1] = Group 3: subcutaneous 5 mg/kg/dose, 40 mM phosphate buffer pH 4.0 + 2.5% dextrose suspension
[2] = Group 3: subcutaneous 5 mg/kg/dose, 40 mM phosphate buffer pH 4.0 + 2.5% dextrose suspension, 0.25 hr
[3] = Group 3: subcutaneous 5 mg/kg/dose, 40 mM phosphate buffer pH 4.0 + 2.5% dextrose suspension, 0.50 hr
[4] = Group 3: subcutaneous 5 mg/kg/dose, 40 mM phosphate buffer pH 4.0 + 2.5% dextrose suspension, 1.0 hr
[5] = Group 3: subcutaneous 5 mg/kg/dose, 40 mM phosphate buffer pH 4.0 + 2.5% dextrose suspension, 2.0 hr
[6] = Group 3: subcutaneous 5 mg/kg/dose, 40 mM phosphate buffer pH 4.0 + 2.5% dextrose suspension, 4.0 hr
[7] = Group 3: subcutaneous suspension, normalized by nominal dose 5 mg/kg
[8] = Group 5: intravitreal 2.5 mg/eye (~1.54 mg/kg), 40 mM phosphate buffer pH 4.0 suspension
[9] = Group 5: intravitreal 2.5 mg/eye (~1.54 mg/kg), 40 mM phosphate buffer pH 4.0 suspension, 1.0 hr
[10] = Group 5: intravitreal 2.5 mg/eye (~1.54 mg/kg), 40 mM phosphate buffer pH 4.0 suspension, 3.0 hr
[11] = Group 5: intravitreal 2.5 mg/eye (~1.54 mg/kg), 40 mM phosphate buffer pH 4.0 suspension, 6.0 hr
[12] = Group 5: intravitreal 2.5 mg/eye (~1.54 mg/kg), 40 mM phosphate buffer pH 4.0 suspension, 24.0 hr
[13] = Group 5: intravitreal 2.5 mg/eye (~1.54 mg/kg), 40 mM phosphate buffer pH 4.0 suspension, 48.0 hr
[14] = Group 5: intravitreal 2.5 mg/eye (~1.54 mg/kg), 40 mM phosphate buffer pH 4.0 suspension, 72.0 hr
[15] = Group 5: intravitreal suspension, normalized by nominal dose 1.54 mg/kg

In the case of `COC(=O)N[C@@H](Cc1ccccc1)C(=O)N[C@@H](Cc1ccc(NS(=O)(=O)O)cc1)c1csc(-c2cccs2)n1` [Compound 1 free acid], the “plasma AUClast (± SE)” value [1] is reported as 864 ± 69 ng·h/mL and 864 ng·h/mL, the “plasma AUC∞” value [1] is reported as 1198 ng·h/mL and the “plasma Cmax (± SE)” value [1] is reported as 395 ± 170 ng/mL and 395 ng/mL. For the same molecule, the “plasma MRTlast” value [1] was 1.58 h, the “plasma t1/2” value [1] was 2.12 h and the plasma tmax [1] was 0.25 h. For the same molecule, the “plasma Average conc.” value [2] was 395 ng/mL, the “plasma Conc., individual rabbit” value [2] was 225 ng/mL and 565 ng/mL and the “plasma Average conc.” value [3] was 337 ng/mL. For the same molecule, the “plasma Conc., individual rabbit” value [3] was 272 ng/mL and 401 ng/mL, the “plasma Average conc.” value [4] was 295 ng/mL and the “plasma Conc., individual rabbit” value [4] was 300 ng/mL and 289 ng/mL. For the same molecule, the “plasma Average conc.” value [5] was 206 ng/mL, the “plasma Conc., individual rabbit” value [5] was 194 ng/mL and 217 ng/mL and the “plasma Average conc.” value [6] was 110 ng/mL. For the same molecule, the “plasma Conc., individual rabbit” value [6] was 111 ng/mL and 108 ng/mL, the “plasma AUClast, dose normalized” value [7] was 173 ± 13.8 kg·ng·h/mL/mg and 173 kg·ng·h/mL/mg and the “plasma AUC∞, dose normalized” value [7] was 240 kg·ng·h/mL/mg. For the same molecule, the “plasma AUClast (± SE)” value [8] was 707 ± 53.1 ng·h/mL and 707 ng·h/mL, the “plasma AUC∞” value [8] was 746 ng·h/mL and the “plasma Cmax (± SE)” value [8] was 25.3 ± 9.30 ng/mL and 25.3 ng/mL. For the same molecule, the “plasma MRTlast” value [8] was 19.1 h, the “plasma t1/2” value [8] was 16.5 h and the plasma tmax [8] was 1.00 h. For the same molecule, the “plasma Average conc.” value [9] was 25.3 ng/mL, the “plasma Conc., individual rabbit” value [9] was 34.6 ng/mL and 16.0 ng/mL and the “plasma Average conc.” value [10] was 24.4 ng/mL. The “plasma Conc., individual rabbit” value [10] was 28.4 ng/mL and 20.4 ng/mL, the “plasma Average conc.” value [11] was 23.1 ng/mL and the “plasma Conc., individual rabbit” value [11] was 22.0 ng/mL and 24.1 ng/mL. The “plasma Average conc.” value [12] was 12.3 ng/mL, the “plasma Conc., individual rabbit” value [12] was 9.96 ng/mL and 14.7 ng/mL and the “plasma Average conc.” value [13] was 3.63 ng/mL. The “plasma Conc., individual rabbit” value [13] was 2.69 ng/mL and 4.57 ng/mL, the “plasma Average conc.” value [14] was 1.65 ng/mL and the “plasma Conc., individual rabbit” value [14] was 1.83 ng/mL and 1.46 ng/mL. The plasma tmax (Group 5: intravitreal 2.5 mg/eye (~1.54 mg/kg), 40 mM phosphate buffer pH 4.0 suspension, listed as Compound 1 (free acid)) was 1 h, the “plasma AUClast, dose normalized” value [15] was 459 ± 34.5 kg·ng·h/mL/mg and 459 kg·ng·h/mL/mg and the “plasma AUC∞, dose normalized” value [15] was 484 kg·ng·h/mL/mg.
